Here are results for eight molecules from article PMC3514547 (Biochemistry, 2012).

Several values for one entry are separate records, joined by “and”; a condition that tells them apart may be missing. Identical values can stand only once. Like-named read-outs stand apart in the source and are kept apart here.

In series [1] the target is T1, SpPot1-DBD binding to d(GGTTACGGTTAC) (Schizosaccharomyces pombe, UniProt O13988).
T1 sequence (O13988 1-389 limits assumed): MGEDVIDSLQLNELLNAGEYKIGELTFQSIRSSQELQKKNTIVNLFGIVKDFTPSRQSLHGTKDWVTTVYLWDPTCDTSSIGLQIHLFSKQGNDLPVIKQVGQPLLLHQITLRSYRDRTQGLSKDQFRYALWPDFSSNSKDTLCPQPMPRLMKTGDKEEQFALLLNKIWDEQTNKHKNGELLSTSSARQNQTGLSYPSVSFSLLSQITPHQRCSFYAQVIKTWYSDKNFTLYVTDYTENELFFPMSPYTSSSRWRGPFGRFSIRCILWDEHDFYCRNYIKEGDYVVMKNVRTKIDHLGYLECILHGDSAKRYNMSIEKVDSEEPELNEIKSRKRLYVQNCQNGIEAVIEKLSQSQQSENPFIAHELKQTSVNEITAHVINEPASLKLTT
As to the kind of experiment: Double filter-binding competition assay, SpPot1-DBD/cognate ssDNA.

Series [2] addresses T2, hPOT1-DBD binding to d(GGTTAGGGTTAG) (Homo sapiens, UniProt Q9NUX5).
T2 sequence (Q9NUX5 1-299): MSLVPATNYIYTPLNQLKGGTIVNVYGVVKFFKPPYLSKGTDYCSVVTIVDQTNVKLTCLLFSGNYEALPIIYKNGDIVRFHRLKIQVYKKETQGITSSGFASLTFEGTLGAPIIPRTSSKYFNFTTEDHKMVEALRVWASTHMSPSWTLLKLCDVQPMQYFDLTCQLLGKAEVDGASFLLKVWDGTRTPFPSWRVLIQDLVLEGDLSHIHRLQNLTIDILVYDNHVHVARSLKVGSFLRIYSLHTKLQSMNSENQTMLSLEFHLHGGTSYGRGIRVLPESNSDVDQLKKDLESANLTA
As to the kind of experiment: Double filter-binding competition assay, hPOT1-DBD/telomeric ssDNA.

In series [3] the target is T3, Pot1pN binding to 6mer ssDNA (Schizosaccharomyces pombe, UniProt O13988).
T3 sequence (O13988 1-187 limits assumed): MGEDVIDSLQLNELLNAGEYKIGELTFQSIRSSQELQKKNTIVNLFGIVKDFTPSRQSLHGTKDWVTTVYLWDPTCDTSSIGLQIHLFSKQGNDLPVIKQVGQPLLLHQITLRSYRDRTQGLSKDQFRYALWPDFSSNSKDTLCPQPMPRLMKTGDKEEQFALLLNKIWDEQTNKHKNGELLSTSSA
As to the kind of experiment: Secondary double filter-binding assay, Pot1pN/6mer. The settings on record: compound up to 500 μM.

Another series concerns the target T4, Pot1pN (Schizosaccharomyces pombe, UniProt O13988).
T4 sequence (O13988 1-187 limits assumed): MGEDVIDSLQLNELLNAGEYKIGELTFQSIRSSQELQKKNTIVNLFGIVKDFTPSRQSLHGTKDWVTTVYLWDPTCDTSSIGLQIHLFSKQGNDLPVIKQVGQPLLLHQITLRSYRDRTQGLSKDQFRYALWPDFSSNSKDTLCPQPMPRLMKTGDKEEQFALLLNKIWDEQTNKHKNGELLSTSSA
As to the kind of experiment: Dynamic light scattering of Pot1pN/CR complex. The settings on record: DLS, equimolar CR 300 μM.

A short description of the next series: CR solubility at NMR pH. The format is physicochemical.
The conditions of series [4]: cited from earlier work.
The subject of series [5] is cell culture and animal models. The settings on record: high doses (~ 100 μM); cited from earlier work.
The subject of another series is germ cells. Conditions: prenatal administration during germ cell development, mice; cited from earlier work.
For another series, the system named is amyloidosis phenotypes. Conditions: low doses (≤ 10 μM); cited from earlier work.
Series [6] concerns the target T5, Pot1pN (first DNA-binding OB fold of S. pombe Pot1) (Schizosaccharomyces pombe, UniProt O13988). Put plainly: ITC of ligand binding to Pot1pN. Conditions: for -TΔS / ΔH / Kd: ITC, 20 °C; for Kd: one-site binding model.
For series [7], the target named is T5, Pot1pN (first DNA-binding OB fold of S. pombe Pot1). The settings on record: read-out: KD of Pot1pN/6mer interaction; cognate ssDNA ligand; cited from earlier work.
A further series concerns the target T6, SpPot1-DBD (Pot1-DBD) (Schizosaccharomyces pombe, UniProt O13988 1-389).
T6 sequence: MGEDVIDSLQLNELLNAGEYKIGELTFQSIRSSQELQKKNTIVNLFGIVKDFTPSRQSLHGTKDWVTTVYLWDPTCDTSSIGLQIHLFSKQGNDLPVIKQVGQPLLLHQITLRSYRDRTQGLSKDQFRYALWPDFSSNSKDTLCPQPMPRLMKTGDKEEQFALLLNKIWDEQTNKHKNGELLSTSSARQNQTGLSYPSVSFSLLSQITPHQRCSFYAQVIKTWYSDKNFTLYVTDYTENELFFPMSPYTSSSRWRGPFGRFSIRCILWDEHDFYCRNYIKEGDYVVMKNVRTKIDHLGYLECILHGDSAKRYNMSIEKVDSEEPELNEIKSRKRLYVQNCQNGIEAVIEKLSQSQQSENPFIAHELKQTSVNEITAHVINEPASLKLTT
As to the kind of experiment: double-filter binding.

A further series deals with T7, hPOT1 (hPOT1-DBD) (human, UniProt Q9NUX5 1-299).
T7 sequence: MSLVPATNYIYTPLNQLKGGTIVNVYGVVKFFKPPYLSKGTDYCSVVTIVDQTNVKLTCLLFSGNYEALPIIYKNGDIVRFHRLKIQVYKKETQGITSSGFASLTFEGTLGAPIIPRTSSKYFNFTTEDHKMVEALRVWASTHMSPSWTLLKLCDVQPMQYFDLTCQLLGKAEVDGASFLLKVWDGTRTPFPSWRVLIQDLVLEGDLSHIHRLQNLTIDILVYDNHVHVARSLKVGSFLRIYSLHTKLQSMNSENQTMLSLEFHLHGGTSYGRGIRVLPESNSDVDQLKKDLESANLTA
As to the kind of experiment: double-filter binding.

Series [8] addresses T8, Pot1pN (first OB fold of SpPot1) (Schizosaccharomyces pombe, UniProt O13988 1-187).
T8 sequence: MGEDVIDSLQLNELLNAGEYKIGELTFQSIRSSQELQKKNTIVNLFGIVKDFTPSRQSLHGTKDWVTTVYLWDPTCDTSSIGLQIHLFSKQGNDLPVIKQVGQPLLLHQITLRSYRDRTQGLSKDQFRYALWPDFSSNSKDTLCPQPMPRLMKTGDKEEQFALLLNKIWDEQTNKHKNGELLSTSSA
As to the kind of experiment: double-filter binding.

A further series addresses T9, 6xHis-Pot1pN (TR-FRET) (Schizosaccharomyces pombe, UniProt O13988 1-187).
T9 sequence: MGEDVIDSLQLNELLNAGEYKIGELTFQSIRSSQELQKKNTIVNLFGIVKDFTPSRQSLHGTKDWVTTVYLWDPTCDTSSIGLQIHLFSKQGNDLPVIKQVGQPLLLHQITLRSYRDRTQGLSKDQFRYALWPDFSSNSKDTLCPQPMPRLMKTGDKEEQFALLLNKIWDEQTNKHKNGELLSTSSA
As to the kind of experiment: TR-FRET.

`Nc1c(/N=N/c2ccc(-c3ccc(/N=N/c4cc(S(=O)(=O)O)c5ccccc5c4N)cc3)cc2)cc(S(=O)(=O)O)c2ccccc12` [CR, Congo red] had an IC50 in [1] of 112000 ± 9000 nM. Moreover, the IC50 in series [2] was 130000 ± 17000 nM. Further, the “inhibition of Pot1pN binding to 6mer” value in series [3] is recorded as “functionally inhibited Pot1pN binding to 6mer”. Further, the “calculated radius of Pot1pN/CR species” value on Pot1pN is given as 3.8 nm. Also, the “calculated MW of Pot1pN/CR species” value on Pot1pN (consistent with 3:3 trimer complex) is recorded as 77 kDa. The “solubility behaviour at pH 6.15” value in “CR solubility at NMR pH” is given as “precipitates from solution”. The aggregation point in [4] is 50 µM. The toxicity result in series [5] is on record as “toxic”. Moreover, the “effect on germ cell number” value in the series with germ cells was “drastic and permanent reduction in germ cell number”. In addition, the “effect on amyloidosis phenotypes and cell survival” value with amyloidosis phenotypes is “rescue amyloidosis phenotypes and prolong cell survival”. The “binding stoichiometry (n)” value in series [6] (ITC forward titration, one-site model) worked out at 1.07 ± 0.02. In series [6], the “-TΔS” value worked out at 1.4 ± 0.2 kcal/mol, the ΔH was -9.7 ± 0.2 kcal/mol and the Kd was determined as 700 ± 10 nM.
Regarding `Cc1cc(-c2ccc(/N=N/c3c(S(=O)(=O)O)cc4cc(S(=O)(=O)O)cc(N)c4c3O)c(C)c2)ccc1/N=N/c1c(S(=O)(=O)O)cc2cc(S(=O)(=O)O)cc(N)c2c1O` [TB, Trypan blue], in series [6], the “-TΔS” value came out at 5.7 ± 0.02 kcal/mol; the ΔH is given as -13.6 ± 0.004 kcal/mol; the Kd was 1210 nM and 1200 nM.
Regarding `Cc1ccc2c(c1)sc(-c1ccc(N(C)C)cc1)[n+]2C` [Thioflavin T], the “inhibition of Pot1pN binding to 6mer” value in series [3] is recorded as “no effect”. Also, the “binding to Pot1pN by ITC” value in series [6] (2 mM Thioflavin T titrated into Pot1pN, single replicate) is reported as “no detectable binding”.
For the molecule d(GGTTAC) [6mer], in [7], the Kd was 30 nM.

B1: d(GGTTACGGTTAC) (ssDNA)
DNA: GGTTACGGTTAC
Regarding B1, the binding result with SpPot1-DBD (Pot1-DBD) is listed as “binds”.

B2: d(GGTTAGGGTTAG) (ssDNA)
DNA: GGTTAGGGTTAG
For B2, the binding result with hPOT1 (hPOT1-DBD) is on record as “binds”.

B3: 6mer (ssDNA)
DNA: GGTTAC
As for B3, the binding result in series [8] was “binds”.

B4: biotin-d(TAAGGTTAC) (ssDNA)
DNA: TAAGGTTAC
modifications: 5' biotin (printed as biotin-conjugated threonine), 3-nt TAA linker
Consider B4, for which the binding result with 6xHis-Pot1pN (TR-FRET) was “binds”.
